In article PMC4839669, “Heterologous Expression and Biochemical Characterization of Two Lipoxygenases in Oriental Melon, Cucumis melo var. makuwa Makino” (PLoS ONE, 2016):

Molecular target: T1, CmLOX10 (Cucumis melo, UniProt A0A125S6K7)
T1 construct: gene LOX10; full-length 902 residues incl. predicted 37-residue transit peptide; N-terminal His tag (pET-30a), E. coli BL21(DE3), Ni-NTA
T1 sequence (A0A125S6K7 1-902): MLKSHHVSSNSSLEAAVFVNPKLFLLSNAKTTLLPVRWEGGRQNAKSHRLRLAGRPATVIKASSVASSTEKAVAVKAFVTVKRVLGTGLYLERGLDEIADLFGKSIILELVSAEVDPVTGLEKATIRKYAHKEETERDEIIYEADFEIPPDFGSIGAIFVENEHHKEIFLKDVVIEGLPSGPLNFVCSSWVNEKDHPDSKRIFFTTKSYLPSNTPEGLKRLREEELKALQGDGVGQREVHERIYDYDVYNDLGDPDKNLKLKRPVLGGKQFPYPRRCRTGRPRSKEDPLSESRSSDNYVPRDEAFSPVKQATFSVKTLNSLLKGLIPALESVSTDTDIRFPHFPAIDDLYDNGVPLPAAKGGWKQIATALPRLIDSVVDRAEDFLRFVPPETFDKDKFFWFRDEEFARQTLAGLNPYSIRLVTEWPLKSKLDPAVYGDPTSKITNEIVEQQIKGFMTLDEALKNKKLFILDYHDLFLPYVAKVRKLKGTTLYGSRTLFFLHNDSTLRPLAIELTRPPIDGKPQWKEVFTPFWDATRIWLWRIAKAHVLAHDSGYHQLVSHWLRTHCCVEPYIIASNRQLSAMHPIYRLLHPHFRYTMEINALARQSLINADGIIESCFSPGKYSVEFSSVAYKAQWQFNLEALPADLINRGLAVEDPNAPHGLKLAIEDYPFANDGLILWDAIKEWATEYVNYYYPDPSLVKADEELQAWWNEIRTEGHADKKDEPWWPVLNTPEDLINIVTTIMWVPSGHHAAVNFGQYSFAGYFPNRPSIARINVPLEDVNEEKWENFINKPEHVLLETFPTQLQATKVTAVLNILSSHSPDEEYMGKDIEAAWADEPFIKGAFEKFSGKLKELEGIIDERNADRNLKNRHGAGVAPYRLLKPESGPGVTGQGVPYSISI
Test: conjugated diene formation at […] nm, Michaelis-Menten
Assay type: biochemical
Details: 25 °C, saturating oxygen, 16.5-330 μM substrate; pH of kinetics not stated explicitly (optimum pH 5.0)

SMILES	Km [µM]
CCCCC/C=C\C/C=C\CCCCCCCC(=O)O [linoleic acid]	230
CC/C=C\C/C=C\C/C=C\CCCCCCCC(=O)O [linolenic acid]	140
